# Columns and labels:
# Assay in all cases: relative viability (nuclei count vs DMSO), 5 days (fraction); higher = more cells survive
# [1] = compound: C[C@@H](C(=O)N[C@@H](C1CCCCC1)C(=O)N2CCC[C@H]2C(=O)N[C@@H]3[C@@H](CC4=CC=CC=C34)OCC#CC#CCO[C@@H]5CC6=CC=CC=C6[C@@H]5NC(=O)[C@@H]7CCCN7C(=O)[C@H](C8CCCCC8)NC(=O)[C@H](C)NC)NC [AZD5582] + CS(=O)(=O)N1CCN(Cc2cc3nc(-c4cccc5[nH]ncc45)nc(N4CCOCC4)c3s2)CC1 [Pictilisib] (partner 1 µM)
# How it was run: (§1)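 Medians of duplicate plates are given as relative viability. That measure is the nuclei count in treated wells divided by the count in vehicle wells. Counts were taken on 4× images of lung cancer cell lines in 1536-well plates, 5 days after pin-tool dosing the day after seeding with one drug alone or a fixed anchor-drug dose plus five library-drug doses (not always all listed) in √10 steps.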
# [2] = compound: Cn1nnc2c(C(N)=O)ncn2c1=O [Temozolomide] + CC(=O)Nc1cccc(-n2c(=O)n(C3CC3)c(=O)c3c(Nc4ccc(I)cc4F)n(C)c(=O)c(C)c32)c1 [Trametinib] (partner 0.02 µM)
# How it was run: as §1
# [3] = compound: Cn1nnc2c(C(N)=O)ncn2c1=O [Temozolomide] + NC(=O)Nc1cc(-c2cccc(F)c2)sc1C(=O)N[C@H]1CCCNC1 [AZD7762] (partner 0.2 µM)
# How it was run: as §1
# [4] = compound: C[C@@H](C(=O)N[C@@H](C1CCCCC1)C(=O)N2CCC[C@H]2C(=O)N[C@@H]3[C@@H](CC4=CC=CC=C34)OCC#CC#CCO[C@@H]5CC6=CC=CC=C6[C@@H]5NC(=O)[C@@H]7CCCN7C(=O)[C@H](C8CCCCC8)NC(=O)[C@H](C)NC)NC [AZD5582] + Nc1ncn([C@H]2C[C@H](O)[C@@H](CO)O2)c(=O)n1 [Decitabine] (partner 2 µM)
# How it was run: as §1
Cell Line,relative viability ([1]; first compound 0.001581 µM),relative viability ([1]; first compound 0.005 µM),relative viability ([1]; first compound 0.01581 µM),relative viability ([1]; first compound 0.05 µM),relative viability ([2]; first compound 0.6325 µM),relative viability ([2]; first compound 2 µM),relative viability ([2]; first compound 6.325 µM),relative viability ([2]; first compound 20 µM),relative viability ([3]; first compound 0.6325 µM),relative viability ([3]; first compound 2 µM),relative viability ([3]; first compound 6.325 µM),relative viability ([3]; first compound 20 µM),relative viability ([4]; first compound 0.001581 µM),relative viability ([4]; first compound 0.005 µM),relative viability ([4]; first compound 0.01581 µM),relative viability ([4]; first compound 0.05 µM),relative viability ([2]; first compound 0.2 µM),relative viability ([3]; first compound 0.2 µM)
EBC-1,0.256,0.328,0.346,0.344,–,–,–,–,–,–,–,–,–,–,–,–,–,–
EKVX,0.399,0.568,0.362,0.513,0.318,0.286,0.338,0.247,0.743,0.681,0.67,0.418,0.351,0.377,0.294,0.385,–,–
EMC-BAC-2,0.469,0.523,0.414,0.328,0.891,0.916,0.891,0.85,1.17,1.15,1.08,1.12,0.892,0.97,0.887,0.841,0.906,1.12
EPLC-272H,0.115,0.0891,0.216,0.0826,0.279,0.338,0.324,0.277,0.259,0.418,0.217,0.208,0.148,–,0.385,0.0824,0.241,0.194
H3255,0.472,0.454,0.392,0.39,0.62,0.656,0.63,0.214,0.839,0.878,0.808,0.257,0.556,0.626,0.572,0.553,–,–
HARA,0.553,0.494,0.381,0.338,0.601,0.886,0.89,0.441,0.322,0.299,0.395,0.305,0.595,0.53,0.565,0.49,0.717,0.358
HCC-15,0.566,0.596,0.621,0.509,0.392,0.417,0.318,0.385,1.18,1.29,1.32,1.4,0.534,0.559,0.602,0.418,0.38,1.53
HCC-44,0.485,0.6,0.461,0.233,1.16,1.08,1.05,0.956,1,1.03,1.11,1.05,0.828,0.786,0.845,0.681,1.06,1.03
